# Assay results published in patent US20190270992A1, “METHODS OF CONTROLLING RED BLOOD CELL PRODUCTION” (WISCONSIN ALUMNI RESEARCH FOUNDATION, priority 2018, published 2019).
# “Also recorded” adds a separate entry of the source.
# Assays:
# [1] = system: mononuclear cells from G-CSF-mobilized peripheral blood; test: qRT-PCR of gene expression after succinylacetone in human erythroid differentiation culture; format: cell-based; details: succinylacetone vs no treatment, day 19 and 20
# Procedure: Primary human mononuclear cells were isolated from G-CSF-mobilized peripheral blood using Histopaque® (Sigma). Cells were maintained in StemSpan™ SFEM medium (Stem Cell Technologies) supplemented with 1×CC100 cytokine mix (Stem Cell Technologies) for 4 days. To induce differentiation, cells were cultured in basal differentiation media [IMDM containing 15% FBS, 2 mM L-glutamine, 1% BSA (Sigma), 500 μg/ml holo human transferrin (Sigma), and 10 [μg/ml insulin (Sigma)] supplemented with 1 μM dexamethasone (Sigma), 1 μM β-estradiol (Steraloids), 5 ng/ml IL-3, 100 ng/ml SCF, and 6 U/ml erythropoietin (Amgen) for 5 days, followed by four days in basal differentiation media supplemented with 50 ng/ml SCF and 6 U/ml erythropoietin and then seven days in basal differentiation media containing 2 U/ml erythropoietin.
# (§1) qRT-PCR. Total RNA was purified from 0.4-2×10^6 cells with TRIzol® (Life Technologies). RNA was treated with DNase I (Life Technologies) for 15 min at room temperature. DNase I was inactivated by EDTA and heating at 65° C. for 10 min. DNase I-treated RNA was incubated with 125 ng of a 5:1 mixture of oligo (dT) primers and random hexamer at 68° C. for 10 min. RNA/primers were incubated with Moloney MLV reverse transcriptase (Life Technologies), 10 mM DTT (Life Technologies), RNAsin® (Promega), and 0.5 mM deoxynucleoside triphosphates at 42° C. for 1 h, and then heat inactivated at 98° C. for 5 min. Real-time PCR reactions were conducted with Power SYBR® Green Master Mix (Applied Biosystems) using ViiA™ 7 Real-Time PCR system (Applied Biosystems). Primer sequences are described in Table 1.
# [2] = system: mononuclear cells from G-CSF-mobilized peripheral blood; test: Cellularity after succinylacetone (flow cytometry, Wright-Giemsa staining); format: cell-based, human; details: succinylacetone during the last four days of culture
# Procedure: (§2) Primary human mononuclear cells were isolated from G-CSF-mobilized peripheral blood using Histopaque® (Sigma). Cells were maintained in StemSpan™ SFEM medium (Stem Cell Technologies) supplemented with 1×CC100 cytokine mix (Stem Cell Technologies) for 4 days. […]
# (§3) Flow cytometry. For intracellular zinc quantitation in mouse cells, cells were washed twice with PBS and incubated with 1 l/ml Ghost Dye™ Red 780 (TONBO Biosciences) for 30 min at 4° C. […] Cells were then washed twice with PBS and analyzed. […] Cells were then washed twice with PBS and analyzed. For intracellular zinc quantitation in human cells, cells were washed twice with HBSS and incubated with HBSS containing 1 μM FluoZin™-3 AM, 0.02% Pluronic® F-127, PE-conjugated anti-human CD71 (0.024 μg in 100 μl, eBioscience, 12-0719-42), and APC-conjugated anti-human CD235a (0.006 μg in 100 μl, eBioscience 17-9987-42) for 30 min at room temperature. […] Cells were then washed twice with PBS, stained with DAPI, and analyzed. Samples were analyzed using a BD LSR II (BD Biosciences). […]
# [3] = system: mononuclear cells from G-CSF-mobilized peripheral blood; test: Heme quantitation after succinylacetone in human erythroid differentiation culture; format: cell-based; details: succinylacetone during the last four days of culture; day 20
# Procedure: as §2
# Heme quantitation. […] Electronic absorption spectra of cleared lysates were recorded on a Varian Cary 4 Bio spectrophotometer, and the oxyhemoglobin concentration of each cleared lysate was calculated using extinction coefficients at 542 nm and 577 nm for human oxyhemoglobin monomers. Total heme in each cleared lysate was determined for two technical replicates using the pyridine hemochrome assay in which 200 μl of a stock solution of 0.1 N NaOH and 33% (v/v) pyridine was combined with 100 μl of the cleared lysate. Upon addition of 2-5 mg of sodium dithionite, electronic absorption spectra were recorded, and total heme concentrations were calculated using known extinction coefficients of the ferrous bis(pyridine) protoheme complex at 525 nm and 556 nm as is known in the art.
# [4] = system: lineage-negative fetal liver-derived hematopoietic precursors; test: Zinc chelation with TPEN and ZnCl2 add-back, flow cytometry (FluoZin-3, live/dead, CD71, Ter119); format: cell-based, murine
# Procedure: (§4) Primary erythroid precursors from E14.5 murine fetal livers were cultured in StemPro®-34 (Gibco) supplemented with 10% nutrient supplement (Gibco), 1×L-glutamine (Cellgro), 1% penicillin-streptomycin (Gemini), 0.1 mM monothioglycerol (Sigma), 1 NM dexamethasone (Sigma), 0.5 U/ml erythropoietin (Amgen), and 1% conditioned medium from a Kit ligand-producing CHO cell line (expansion culture). To chelate zinc, 10 NM N,N,N′,N′-Tetrakis(2-pyridylmethyl)ethylenediamine (TPEN, Sigma, P4413) was added to the media, and 20 NM ZnCl2 (Fisher Scientific) was added back. After two days, cells were differentiated in IMDM (Gibco) containing 10% FBS (Gemini), 10% plasma-derived serum (PDS; Animal Technologies), 5% protein-free hybridoma medium II (PFHM II; Gibco), 1% penicillin-streptomycin (Gemini), 0.1 mM monothioglycerol (Sigma) and 6 U/ml of erythropoietin (Amgen).
# Flow cytometry. For intracellular zinc quantitation in mouse cells, cells were washed twice with PBS and incubated with 1 l/ml Ghost Dye™ Red 780 (TONBO Biosciences) for 30 min at 4° C. Cells were washed once with PBS containing 2% FBS and twice with HBSS, and treated with HBSS containing 1 μM FluoZin™-3 AM (Invitrogen), 0.02% Pluronic® F-127 (Invitrogen), BV421-conjugated anti-mouse CD71 (0.2 μg in 100 μl, Biolegend, 113813), and APC-conjugated anti-mouse Ter119 (0.2 μg in 100 μl, Biolegend, 116212) for 30 min at room temperature. Cells were washed once with HBSS and incubated for 15 min at room temperature. Cells were then washed twice with PBS and analyzed. […] Cells were then washed twice with PBS and analyzed. For intracellular zinc quantitation in human cells, cells were washed twice with HBSS and incubated with HBSS containing 1 μM FluoZin™-3 AM, 0.02% Pluronic® F-127, PE-conjugated anti-human CD71 (0.024 μg in 100 μl, eBioscience, 12-0719-42), and APC-conjugated anti-human CD235a (0.006 μg in 100 μl, eBioscience 17-9987-42) for 30 min at room temperature. […] Cells were then washed twice with PBS, stained with DAPI, and analyzed. Samples were analyzed using a BD LSR II (BD Biosciences). […]
# G1E-ER-GATA-1 cells = test: 5-ALA rescue of heme biosynthesis, qRT-PCR of zinc transporter genes; format: cell-based, murine; details: 1 mM 5-ALA to bypass ALAS-2 and rescue heme biosynthesis; FIG. 3B
# Procedure: Cell culture. G1E-ER-GATA-1 cells were cultured in Iscove's modified Dulbecco's medium (IMDM; Gibco) containing 15% FBS (Gemini), 1% penicillin-streptomycin (Gemini), 2 U/ml erythropoietin (Amgen), 120 nM monothioglycerol (Sigma), and 0.6% conditioned medium from a Kit ligand-producing CHO cell line, and 1 μg/ml puromycin (Gemini). ER-GATA-1 activity was induced by adding 1 μM β-estradiol (Steraloids) to media. To rescue heme synthesis, 1 mM 5-aminolevulinic acid hydrochloride (5-ALA; Sigma) was added to media.
# as §1
# [5] = system: lineage-negative hematopoietic precursors (E14.5); test: Thiazole orange (TO) discrimination of nucleated erythroblasts and enucleated progeny in shRNA knockdown cells; format: cell-based, murine; details: expanded 2 days, differentiated 3 days
# Procedure: as §4, with “After two days, cells were differentiated in IMDM (Gibco) containing 10% FBS (Gemini), 10% plasma-derived serum (PDS; Animal Technologies), 5% protein-free hybridoma medium II (PFHM II; Gibco), 1% penicillin-streptomycin (Gemini), 0.1 mM monothioglycerol (Sigma) and 6 U/ml of erythropoietin (Amgen).” left out
# as §3
# Slc30a1 mRNA = test: shRNA-mediated knockdown, qRT-PCR of Slc30a1 mRNA; format: cell-based, mouse; details: off-target check
# Procedure: as §4
# (§5) qRT-PCR. Total RNA was purified from 0.4-2×10^6 cells with TRIzol® (Life Technologies). RNA was treated with DNase I (Life Technologies) for 15 min at room temperature. DNase I was inactivated by EDTA and heating at 65° C. for 10 min. DNase I-treated RNA was incubated with 125 ng of a 5:1 mixture of oligo (dT) primers and random hexamer at 68° C. for 10 min. […]
# [6] = system: lineage-negative hematopoietic precursors (E14.5); test: Erythroid populations (CD71, Ter119, FSC-A flow cytometry) in shRNA knockdown cells; format: cell-based, murine; details: day 5
# Procedure: as §4, with “After two days, cells were differentiated in IMDM (Gibco) containing 10% FBS (Gemini), 10% plasma-derived serum (PDS; Animal Technologies), 5% protein-free hybridoma medium II (PFHM II; Gibco), 1% penicillin-streptomycin (Gemini), 0.1 mM monothioglycerol (Sigma) and 6 U/ml of erythropoietin (Amgen).” left out
# as §3
# Slc39a8 mRNA = test: shRNA-mediated knockdown, qRT-PCR of Slc39a8 mRNA; format: cell-based, mouse; details: Luciferase shRNA as control
# Procedure: as §4, §5
# [7] = system: lineage-negative hematopoietic precursors (E14.5); test: Intracellular zinc (FluoZin-3 flow cytometry) in shRNA knockdown cells; format: cell-based, murine
# Procedure: as §4, with “After two days, cells were differentiated in IMDM (Gibco) containing 10% FBS (Gemini), 10% plasma-derived serum (PDS; Animal Technologies), 5% protein-free hybridoma medium II (PFHM II; Gibco), 1% penicillin-streptomycin (Gemini), 0.1 mM monothioglycerol (Sigma) and 6 U/ml of erythropoietin (Amgen).” left out
# as §3
molecule,measurement,setting,value
"CC(=O)CC(=O)CCC(=O)O [Succinylacetone, succinylacetone]",ACTB expression,[1],unaffected
same,HBA1 expression,[1],reduced
same,HBB expression,[1],reduced
same,SLC30A1 expression,[1],reduced
same,cellularity,[2],did not impact
same,decrease of heme in oxyhemoglobin,[3],3.4 fold
same,decrease of total heme,[3],2.9 fold
"c1ccc(CN(CCN(Cc2ccccn2)Cc2ccccn2)Cc2ccccn2)nc1 [TPEN, N,N,N′,N′-Tetrakis(2-pyridylmethyl)ethylenediamine]",live cell population,"[4]; 10 NM TPEN in expansion culture, day 3",considerably decreased
same,intracellular zinc levels in erythroid precursors of varying maturation stage,"[4]; 10 NM TPEN in expansion culture, FluoZin-3 MFI",reduced
"Cl.NCC(=O)CCC(=O)O [5-ALA, 5-aminolevulinic acid hydrochloride]",Slc30a1 expression,G1E-ER-GATA-1 cells,increased
[Cl-].[Cl-].[Zn+2] [ZnCl2],effect of adding ZnCl2 to the media on the actions of TPEN,"[4]; 10 NM TPEN, 20 NM ZnCl2 added back",negated the actions of TPEN
"TGATAATTGTCACTGACAG (listed as DNA, chemistry not fully specified) [shRNAs targeting Slc39a8, retrovirus-expressed shRNA against mouse zinc importer Slc39a8]",cell populations (CD71/TO),[5],did not influence
same,Slc30a1 mRNA levels upon Slc39a8 loss,Slc30a1 mRNA,did not impact
same,cellularity,[6],did not impact
same,downregulation of Slc39a8 mRNA,"Slc39a8 mRNA; day five (expanded two days, differentiated three days)",71%
same,downregulation of Slc39a8 mRNA,Slc39a8 mRNA; day two (expanded for two days),86%
same,intracellular zinc in all (more mature) populations,"[7]; erythroid differentiation culture, day 5",no effect; also recorded: did not alter
same,decrease of intracellular zinc in R3 cells,"[7]; expansion culture, day 2",3.3 fold
